From patent US9833497B2, “Human originated EGF domain proteins and use of the same” (CHENGDU SOURCEBIO LIMITED-LIABILITY COMPANY, priority 2013, dated 2017)

Tests used:
Assay type in all cases: cell-based
E. coli DH5α = assay: Antibacterial activity: MIC and growth curve against E. coli DH5α in 96-well plate; conditions: minimal inhibitory concentration against E. coli DH5α; 96-well plate, 5×10^5 CFU/mL, 37° C., judged after 8 h
Method in brief: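 Log-phase DH5α (OD600 about 0.5, 37° C, 185 rpm in LB) was pelleted, resuspended in fresh LB and seeded at 5×10^5 CFU/mL with recombinant protein at 50, 25 and 12.5 μg/mL (two-fold series), in triplicate. Plates were shaken at 175 rpm, 37° C, and OD600 was read every 30 min. MIC was the lowest concentration with no growth.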

E. coli BL21 = assay: MIC against Gram-negative bacteria: E. coli BL21
Method in brief: (§1)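 First, colonies from LB agar were grown in LB at 37° C, 185 rpm, to McFarland turbidity 0.5, then centrifuged and resuspended in fresh LB. Next, wells received 5×10^5 CFU/mL bacteria plus two-fold serially diluted EGF domain protein (triplicate). Finally, plates were shaken at 37° C and the no-growth concentration taken as MIC.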

Pseudomonas aeruginosa = assay: MIC against Gram-negative bacteria: Pseudomonas aeruginosa
Method in brief: as §1

Klebsiella pneumonia = assay: MIC against Gram-negative bacteria: Klebsiella pneumonia
Method in brief: as §1

Enterobacter cloacae = assay: MIC against Gram-negative bacteria: Enterobacter cloacae
Method in brief: as §1

Aeromonas hydrophila = assay: MIC against Gram-negative bacteria: Aeromonas hydrophila
Method in brief: as §1

Citrobacter diversus = assay: MIC against Gram-negative bacteria: Citrobacter diversus
Method in brief: as §1

Moraxella catarrhalis = assay: MIC against Gram-negative bacteria: Moraxella catarrhalis
Method in brief: as §1

Proteus mirabilis = assay: MIC against Gram-negative bacteria: Proteus mirabilis
Method in brief: as §1

Proteus vulgaris = assay: MIC against Gram-negative bacteria: Proteus vulgaris
Method in brief: as §1

Serratia marcescens = assay: MIC against Gram-negative bacteria: Serratia marcescens
Method in brief: as §1

[1] = E. coli BL21, 10 h cultivation at 37° C., 5×10^5 CFU/mL
[2] = P. aeruginosa, 10 h cultivation at 37° C., 5×10^5 CFU/mL
[3] = K. pneumonia, 10 h cultivation at 37° C., 5×10^5 CFU/mL
[4] = E. cloacae, 10 h cultivation at 37° C., 5×10^5 CFU/mL
[5] = A. hydrophila, 10 h cultivation at 37° C., 5×10^5 CFU/mL
[6] = C. diversus, 10 h cultivation at 37° C., 5×10^5 CFU/mL
[7] = M. catarrhalis, 10 h cultivation at 37° C., 5×10^5 CFU/mL
[8] = P. mirabilis, 10 h cultivation at 37° C., 5×10^5 CFU/mL
[9] = P. vulgaris, 10 h cultivation at 37° C., 5×10^5 CFU/mL
[10] = S. marcescens, 10 h cultivation at 37° C., 5×10^5 CFU/mL
[11] = E. coli BL21, 96-well plate, 5×10^5 CFU/mL, 37° C., 10 h
[12] = Pseudomonas aeruginosa, 96-well plate, 5×10^5 CFU/mL, 37° C., 10 h
[13] = Klebsiella pneumonia, 96-well plate, 5×10^5 CFU/mL, 37° C., 10 h
[14] = Enterobacter cloacae, 96-well plate, 5×10^5 CFU/mL, 37° C., 10 h
[15] = Aeromonas hydrophila, 96-well plate, 5×10^5 CFU/mL, 37° C., 10 h
[16] = Citrobacter diversus, 96-well plate, 5×10^5 CFU/mL, 37° C., 10 h
[17] = Moraxella catarrhalis, 96-well plate, 5×10^5 CFU/mL, 37° C., 10 h
[18] = Proteus mirabilis, 96-well plate, 5×10^5 CFU/mL, 37° C., 10 h
[19] = Proteus vulgaris, 96-well plate, 5×10^5 CFU/mL, 37° C., 10 h
[20] = Serratia marcescens, 96-well plate, 5×10^5 CFU/mL, 37° C., 10 h
[21] = 10 h cultivation at 37° C., 5×10^5 CFU/mL, two-fold serial dilution
[22] = 96-well plate, 5×10^5 CFU/mL, 37° C., 10 h

PRT422 (DVDECALGTHNCSEAETCHNIQGSFRCLRFECPPNYVQVSKTKCE; listed as Homo sapiens)
MIC (E. coli DH5α): 12.5 µg/mL
MIC (E. coli BL21; [1]): 25 µg/mL
MIC (Pseudomonas aeruginosa; [2]): 12.5 µg/mL
MIC (Klebsiella pneumonia; [3]): 25 µg/mL
MIC (Enterobacter cloacae; [4]): 12.5 µg/mL
MIC (Aeromonas hydrophila; [5]): 25 µg/mL
MIC (Citrobacter diversus; [6]): 12.5 µg/mL
MIC (Moraxella catarrhalis; [7]): 12.5 µg/mL
MIC (Proteus mirabilis; [8]): 25 µg/mL
MIC (Proteus vulgaris; [9]): 12.5 µg/mL
MIC (Serratia marcescens; [10]): 25 µg/mL

PRT1282 (SLDSCSSGPCENGGTCHAQEGEDAPFTCSCPTGFEGPTCG; listed as Homo sapiens)
MIC (E. coli DH5α): 12.5 µg/mL
MIC against E. coli BL21 (E. coli BL21; [11]): 50 µg/mL
MIC against P. aeruginosa (Pseudomonas aeruginosa; [12]): 12.5 µg/mL
MIC against K. pneumonia (Klebsiella pneumonia; [13]): 50 µg/mL
MIC against E. cloacae (Enterobacter cloacae; [14]): 25 µg/mL
MIC against A. hydrophila (Aeromonas hydrophila; [15]): 12.5 µg/mL
MIC against C. diversus (Citrobacter diversus; [16]): 50 µg/mL
MIC against M. catarrhalis (Moraxella catarrhalis; [17]): 25 µg/mL
MIC against P. mirabilis (Proteus mirabilis; [18]): 12.5 µg/mL
MIC against P. vulgaris (Proteus vulgaris; [19]): 25 µg/mL
MIC against S. marcescens (Serratia marcescens; [20]): 50 µg/mL

PRT1160 (DTEDCKSASCKNGTTSTHLRGYFFRKCVPGFKGTQCE; listed as Homo sapiens)
MIC (E. coli DH5α): 12.5 µg/mL
MIC E. coli BL21 (E. coli BL21; [21]): 25 µg/mL
MIC P. aeruginosa (Pseudomonas aeruginosa; [21]): 12.5 µg/mL
MIC K. pneumonia (Klebsiella pneumonia; [21]): 25 µg/mL
MIC E. cloacae (Enterobacter cloacae; [21]): 12.5 µg/mL
MIC A. hydrophila (Aeromonas hydrophila; [21]): 12.5 µg/mL
MIC C. diversus (Citrobacter diversus; [21]): 25 µg/mL
MIC M. catarrhalis (Moraxella catarrhalis; [21]): 12.5 µg/mL
MIC P. mirabilis (Proteus mirabilis; [21]): 25 µg/mL
MIC P. vulgaris (Proteus vulgaris; [21]): 12.5 µg/mL
MIC S. marcescens (Serratia marcescens; [21]): 25 µg/mL

PRT430 (DIDECAQGAGILCTFRCLNVPGSYQCACPEQGYTMTANGRSCK; listed as Homo sapiens)
MIC (E. coli DH5α): 12.5 µg/mL
MIC (E. coli BL21; [1]): 25 µg/mL
MIC (Pseudomonas aeruginosa; [2]): 50 µg/mL
MIC (Klebsiella pneumonia; [3]): 25 µg/mL
MIC (Enterobacter cloacae; [4]): 12.5 µg/mL
MIC (Aeromonas hydrophila; [5]): 25 µg/mL
MIC (Citrobacter diversus; [6]): 50 µg/mL
MIC (Moraxella catarrhalis; [7]): 25 µg/mL
MIC (Proteus mirabilis; [8]): 12.5 µg/mL
MIC (Proteus vulgaris; [9]): 50 µg/mL
MIC (Serratia marcescens; [10]): 12.5 µg/mL

PRT1000 (ELGGCISAPCAHGGTCYPQPSGYNCTCPTGYTGPTCS; listed as Homo sapiens)
MIC (E. coli DH5α): 50 µg/mL
MIC (E. coli BL21; E. coli BL21, 10 h cultivation at 37° C.): 12.5 µg/mL
MIC (Pseudomonas aeruginosa; P. aeruginosa, 10 h cultivation at 37° C.): 50 µg/mL
MIC (Klebsiella pneumonia; K. pneumonia, 10 h cultivation at 37° C.): 25 µg/mL
MIC (Enterobacter cloacae; E. cloacae, 10 h cultivation at 37° C.): 12.5 µg/mL
MIC (Aeromonas hydrophila; A. hydrophila, 10 h cultivation at 37° C.): 25 µg/mL
MIC (Citrobacter diversus; C. diversus, 10 h cultivation at 37° C.): 50 µg/mL
MIC (Moraxella catarrhalis; M. catarrhalis, 10 h cultivation at 37° C.): 25 µg/mL
MIC (Proteus mirabilis; P. mirabilis, 10 h cultivation at 37° C.): 12.5 µg/mL
MIC (Proteus vulgaris; P. vulgaris, 10 h cultivation at 37° C.): 25 µg/mL
MIC (Serratia marcescens; S. marcescens, 10 h cultivation at 37° C.): 50 µg/mL

PRT665 (GIDRCAAGATNVCGPGTCVNLPDGYRCVCSPGYQLHPSQAYCT; listed as Homo sapiens)
MIC (E. coli DH5α): 25 µg/mL
MIC E. coli BL21 (E. coli BL21; [22]): 50 µg/mL
MIC P. aeruginosa (Pseudomonas aeruginosa; [22]): 25 µg/mL
MIC K. pneumonia (Klebsiella pneumonia; [22]): 12.5 µg/mL
MIC E. cloacae (Enterobacter cloacae; [22]): 25 µg/mL
MIC A. hydrophila (Aeromonas hydrophila; [22]): 50 µg/mL
MIC C. diversus (Citrobacter diversus; [22]): 25 µg/mL
MIC M. catarrhalis (Moraxella catarrhalis; [22]): 12.5 µg/mL
MIC P. mirabilis (Proteus mirabilis; [22]): 25 µg/mL
MIC P. vulgaris (Proteus vulgaris; [22]): 50 µg/mL
MIC S. marcescens (Serratia marcescens; [22]): 25 µg/mL

PRT7 (TCLSSKEGTICSGNGVCSNELKCVCNRHWIGSDCN; listed as Homo sapiens)
MIC (E. coli DH5α): 12.5 µg/mL
MIC (μg/mL) E. coli BL21 (E. coli BL21; [11]): 25 µg/mL
MIC (μg/mL) P. aeruginosa (Pseudomonas aeruginosa; [12]): 25 µg/mL
MIC (μg/mL) K. pneumonia (Klebsiella pneumonia; [13]): 12.5 µg/mL
MIC (μg/mL) E. cloacae (Enterobacter cloacae; [14]): 12.5 µg/mL
MIC (μg/mL) A. hydrophila (Aeromonas hydrophila; [15]): 50 µg/mL
MIC (μg/mL) C. diversus (Citrobacter diversus; [16]): 12.5 µg/mL
MIC (μg/mL) M. catarrhalis (Moraxella catarrhalis; [17]): 25 µg/mL
MIC (μg/mL) P. mirabilis (Proteus mirabilis; [18]): 50 µg/mL
MIC (μg/mL) P. vulgaris (Proteus vulgaris; [19]): 50 µg/mL
MIC (μg/mL) S. marcescens (Serratia marcescens; [20]): 12.5 µg/mL

PRT734 (NNNPCLENNGGCSHLCFALPGLHTPKCDCAFGTLQSDGKNCA; listed as Homo sapiens)
MIC (E. coli DH5α): 50 µg/mL
MIC E. coli BL21 (E. coli BL21; [22]): 12.5 µg/mL
MIC P. aeruginosa (Pseudomonas aeruginosa; [22]): 25 µg/mL
MIC K. pneumonia (Klebsiella pneumonia; [22]): 50 µg/mL
MIC E. cloacae (Enterobacter cloacae; [22]): 12.5 µg/mL
MIC A. hydrophila (Aeromonas hydrophila; [22]): 50 µg/mL
MIC C. diversus (Citrobacter diversus; [22]): 25 µg/mL
MIC M. catarrhalis (Moraxella catarrhalis; [22]): 12.5 µg/mL
MIC P. mirabilis (Proteus mirabilis; [22]): 25 µg/mL
MIC P. vulgaris (Proteus vulgaris; [22]): 25 µg/mL
MIC S. marcescens (Serratia marcescens; [22]): 50 µg/mL

PRT886 (RGPRCSQPGETCLNGGKCEAANGTEACVCGGAFVGPRCQ; listed as Homo sapiens)
MIC (E. coli DH5α): 25 µg/mL
MIC (μg/mL) E. coli BL21 (E. coli BL21; [1]): 12.5 µg/mL
MIC (μg/mL) P. aeruginosa (Pseudomonas aeruginosa; [2]): 25 µg/mL
MIC (μg/mL) K. pneumonia (Klebsiella pneumonia; [3]): 12.5 µg/mL
MIC (μg/mL) E. cloacae (Enterobacter cloacae; [4]): 25 µg/mL
MIC (μg/mL) A. hydrophila (Aeromonas hydrophila; [5]): 12.5 µg/mL
MIC (μg/mL) C. diversus (Citrobacter diversus; [6]): 25 µg/mL
MIC (μg/mL) M. catarrhalis (Moraxella catarrhalis; [7]): 12.5 µg/mL
MIC (μg/mL) P. mirabilis (Proteus mirabilis; [8]): 25 µg/mL
MIC (μg/mL) P. vulgaris (Proteus vulgaris; [9]): 12.5 µg/mL
MIC (μg/mL) S. marcescens (Serratia marcescens; [10]): 25 µg/mL

PRT559 (CHCSAEGSLHAACDPRSGQCSCRPRVTGLRCDTCVPGAYNFPYCEA; listed as Homo sapiens)
MIC (E. coli DH5α): 25 µg/mL
MIC against E. coli BL21 (E. coli BL21; [22]): 50 µg/mL
MIC against P. aeruginosa (Pseudomonas aeruginosa; [22]): 25 µg/mL
MIC against K. pneumonia (Klebsiella pneumonia; [22]): 12.5 µg/mL
MIC against E. cloacae (Enterobacter cloacae; [22]): 25 µg/mL
MIC against A. hydrophila (Aeromonas hydrophila; [22]): 50 µg/mL
MIC against C. diversus (Citrobacter diversus; [22]): 25 µg/mL
MIC against M. catarrhalis (Moraxella catarrhalis; [22]): 12.5 µg/mL
MIC against P. mirabilis (Proteus mirabilis; [22]): 25 µg/mL
MIC against P. vulgaris (Proteus vulgaris; [22]): 50 µg/mL
MIC against S. marcescens (Serratia marcescens; [22]): 25 µg/mL

PRT158 (PGESHANDLECSGKGKCTTKPSEATFSCTCEEQYVGTFCE; listed as Homo sapiens)
MIC (E. coli DH5α): 12.5 µg/mL
MIC (μg/mL) E. coli BL21 (E. coli BL21; [1]): 12.5 µg/mL
MIC (μg/mL) P. aeruginosa (Pseudomonas aeruginosa; [2]): 50 µg/mL
MIC (μg/mL) K. pneumonia (Klebsiella pneumonia; [3]): 12.5 µg/mL
MIC (μg/mL) E. cloacae (Enterobacter cloacae; [4]): 50 µg/mL
MIC (μg/mL) A. hydrophila (Aeromonas hydrophila; [5]): 25 µg/mL
MIC (μg/mL) C. diversus (Citrobacter diversus; [6]): 12.5 µg/mL
MIC (μg/mL) M. catarrhalis (Moraxella catarrhalis; [7]): 25 µg/mL
MIC (μg/mL) P. mirabilis (Proteus mirabilis; [8]): 50 µg/mL
MIC (μg/mL) P. vulgaris (Proteus vulgaris; [9]): 25 µg/mL
MIC (μg/mL) S. marcescens (Serratia marcescens; [10]): 12.5 µg/mL
